Data published in patent US9073961B2, “Substitution derivatives of N6 -benzyladenosine-5′-monophosphate, methods of preparation thereof, use thereof as medicaments, and therapeutic preparations containing these compounds” (UNIVERZITA PALACKEHO V OLOMOUCI, priority 2010, dated 2015).

Columns and labels:
[1] = system: cytokinin-dependent tobacco callus Nicotiana tabacum L. cv. Wisconsin 38; experiment: Growth of cytokinin-dependent tobacco callus; format: cell-based; settings: for Activity (%) [10^−5 mol · l^−1 KR = 100%]: at concentration with highest activity, relative to control cytokinin; for Concentration with highest activity: tobacco callus fresh weight after four weeks
Description: Cytokinin effect of newly prepared derivatives was tested using cytokinin-dependent tobacco callus. The cytokinin-dependent tobacco callus Nicotiana tabacum L. cv. Wisconsin 38 was maintained at 25° C. in darkness on modified MS medium, containing per 1 liter: 4 μmol of nicotinic acid, 2.4 μmol of pyridoxine hydrochloride, 1.2 μmol of thiamine, 26.6 μmol of glycine, 1.37 μmol of glutamine, 1.8 μmol of myo-inositol, 30 g of sucrose, 8 g of agar, 5.37 μmol of NAA and 0.5 μmol of the compound tested. Subcultivation was carried out every three weeks. Fourteen days before the bioassay, the callus tissue was transferred to the media without 6-benzylaminopurine. The biological activity was determined from the increase of the fresh callus weight after four weeks of cultivation. Five replicates were prepared for each concentration of the compound tested and the entire test was repeated twice. […] The compounds to be tested were dissolved in dimethylsulfoxide (DMSO) and the solution brought up to 10^−3 M with distilled water. […] The stimulatory activity was calculated from the dose-dependent fresh weight callus growth curves.
From the obtained data, the concentration with the highest activity was selected for each compound tested. Relative activity of the compound at this concentration was calculated (Table 5). […]

[2] = system: CEM (T-lymphoblastoid leukemia); experiment: Calcein AM cytotoxicity assay, CEM; format: cell-based; settings: 72 hours incubation, Calcein AM
Excerpt: (§1) Because toxic compounds negatively influence metabolic processes in cells, many standard cytotoxicity assays are based on measurement of metabolisation rate of various artificial substrates. Resulting product is then quantified e.g. by means of spectrometry. The assays can be easily modified for use in 96-well plates. For evaluation of cytotoxic effect of the novel substituted 9-substituted cytokinin derivatives of this invention, a microtiter assay based on quantification of metabolisation of Calcein AM was used. The assay is widely used in drug screening programs and in chemosensitivity testing. In the living cells, Calcein AM is enzymatically hydrolysed and accumulation of resulting calcein is manifested by green fluorescence.
(§2) In the routine screening the following cell lines have been used: CEM (T-lymphoblastoid leukemia), HL-60 (promyelocytic leukemia), K-562 (human erythroleukemia), MCF-7 (breast carcinoma), HOS (human osteogenic sarcoma), and G-361 (human malignant melanoma). Normal human fibroblasts BJ were used as a control for routine screening of the compounds. The cells were kept in Nunc/Corning 80 cm^2 plastic bottles and grown in cell culture medium (DMEM containing 5 g/l glucose, 2 mM glutamine, 100 U/ml penicilline, 100 μg/ml streptomycine, 10% fetal bovine serum and sodium hydrogencarbonate), the compounds were prepared according to the procedure of the present invention.
(§3) The cell suspensions were prepared and diluted according to the particular cell type and the expected target cell density (2.500-30.000 cells per well based on cell growth characteristics) and pippetted (80 μl) into 96-well plates. Inoculates were allowed a pre-incubation period of 24 hours at 37° C. and 5% CO2 for stabilisation. Tested compound was added in total volume of 20 μl of water at time zero. Usually, test compound was evaluated at six 3-fold dilutions. In routine testing, the highest concentration tested was 166.7 μM. All drug concentrations were tested in triplicates. Incubations of cells with the test compounds lasted for 72 hours at 37° C., in 5% CO2 atmosphere and 100% humidity. At the end of incubation period Calcein AM in PBS was added into final concentration of 1 μg/ml. After another 1 hour of incubation fluorescence (FD) was measured with the Labsystem FIA Reader Fluoroscan Ascent (Microsystems). Tumor cell survival (TCS) was estimated using the following equation: […]=(FDdrug exposed well/FDcontrol well)×100%. The GI50 value, the drug concentration causing 50% reduction of esterase activity, was calculated from the obtained dose response curves (FIG. 1).
(§4) Cytoxicity of novel compounds was tested on panel of cell lines of different histogenetic and species origin (Table 3). […] The effective novel derivatives killed tumour cells in concentrations close to 0.1-50 μM.

[3] = system: Normal human fibroblasts BJ; experiment: Calcein AM cytotoxicity assay, BJ; format: cell-based; settings: 72 hours incubation
Excerpt: as §1, §2, §3, §4

[4] = system: K-562 (human erythroleukemia); experiment: Calcein AM cytotoxicity assay, K-562; format: cell-based; settings: 72 hours incubation
Excerpt: as §1, §2, §3, §4

[5] = system: HOS (human osteogenic sarcoma); experiment: Calcein AM cytotoxicity assay, HOS; format: cell-based; settings: 72 hours incubation
Excerpt: as §1, §2, §3, §4

[6] = system: HL-60 (promyelocytic leukemia); experiment: Calcein AM cytotoxicity assay, HL60; format: cell-based, human; settings: 72 hours incubation
Excerpt: as §1, §2, §3, §4

[7] = system: G-361 (human malignant melanoma); experiment: Calcein AM cytotoxicity assay, G-361; format: cell-based; settings: 72 hours incubation
Excerpt: as §1, §2, §3, §4

MCF-7 (breast carcinoma) = experiment: Calcein AM cytotoxicity assay, MCF7; format: cell-based; settings: 72 hours incubation
Excerpt: as §1, §2, §3, §4

Human lymphocytes = experiment: Immunosuppressive activity, 3H-thymidine incorporation in concanavalin A activated lymphocytes; format: cell-based; settings: 72 hours, [3H]-TdR incorporation, read-out: Human lymphocytes ED50
Excerpt: One of the most important parameters of specific cellular immunity is the proliferative response of lymphocytes to antigens or polyclonal mitogens. The majority of normal mammalian peripheral lymphocytes comprise resting cells. Antigens or nonspecific polyclonal mitogens have the capacity to activate lymphoid cells and this is accompanied by dramatic changes of intracellular metabolism (mitochondrial activity, protein synthesis, nucleic acids synthesis, formation of blastic cells and cellular proliferation). […] Variety of in vitro assays was developed to measure proliferative response of lymphocytes. The most commonly used is ^3H-thymidine incorporation method.
During cell proliferation, DNA has to be replicated before the cell is divided into two daughter cells. This close association between cell doublings and DNA synthesis is very attractive for assessing cell proliferation. If labelled DNA precursors are added to the cell culture, cells that are about to divide incorporate the labelled nucleotide into their DNA. Traditionally, those assays usually involve the use of radiolabelled nucleosides, particularly tritiated thymidine ([^3H]-TdR). The amount of [^3H]-TdR incorporated into the cellular DNA is quantified by liquid scintillation counting.
Human heparinized peripheral blood was obtained from healthy volunteers by cubital vein punction. The blood was diluted in PBS (1:3) and mononuclear cells were separated by centrifugation in Ficoll-Hypaque density gradient (Pharmacia, 1.077 g/ml) at 2200 rpm for 30 minutes. Following centrifugation, lymphocytes were washed in PBS and resuspended in cell culture medium (RMPI 1640, 2 mM glutamine, 100 U/ml penicillin, 100 μg/ml streptomycin, 10% fetal calf serum and sodium bicarbonate).
The cells were diluted at target density of 1.100.000 cells/ml and were added by pipette (180 μl) into 96-well microtiter plates. Four-fold dilutions of the intended test concentration were added at time zero in 20 μl aliquots to the microtiter plate wells. Usually, test compound was evaluated at six 4-fold dilutions. In routine testing, the highest well concentration was 266.7 μM. All drug concentrations were examined in duplicates. All wells with exception of unstimulated controls were activated with 50 μl of concanavalin A (25 μg/ml). Incubations of cells with test compounds lasted for 72 hours at 37° C., in 5% CO2 atmosphere and 100% humidity. At the end of incubation period, the cells were assayed by using the [^3H]-TdR:
Cell cultures were incubated with 0.5 μCi (20 μl of stock solution 500 μCi/ml) per well for 6 hours at 37° C. and 5% CO2. The automated cell harvester was used to lyse cells in water and adsorb the DNA onto glass-fiber filters in the format of microtiter plate. The DNA incorporated [^3H]-TdR was retained on the filter while unincorporated material passes through. The filters were dried at room temperature overnight, sealed into a sample bag with 10-12 ml of scintillant. The amount of [^3H]-TdR present in each filter (in cpm) was determined by scintillation counting in a Betaplate liquid scintillation counter. The effective dose of immunosuppressant (ED) was calculated using the following equation: ED=(CCPMdrug exposed well/mean CCPMcontrol wells)×100%. The ED50 value, the drug concentration inhibiting proliferation of 50% of lymphocytes, was calculated from the obtained dose response curves.
To evaluate immunosuppressive activity of substituted adenines, their ability to inhibit polyclonal mitogen induced proliferation of normal human lymphocytes was analyzed (Table 4). […] Effective immunosuppressive dose of new derivatives under in vitro conditions was close to 10-40 μM.

p21^WAF-1 = experiment: Induction of p21WAF-1 expression in MCF-7 cells (immunoblot); format: cell-based
Description: MCF-7 cells cultured at 37° C. in 5% CO2 atmosphere in DMEM medium supplemented with 10% foetal calf serum were treated with compound 28 concentration ranges of 0-100 μM. Compound 28 was added into the medium from the 100 mM stock solution in DMSO. Cells were harvested 12 hours after incubation with compound 28, centrifuged (1000 rpm, 4° C., 5 min), washed twice by ice-cold PBS and re-centrifuged. These washed cells were then lysed by 1×CSB (loading buffer for SDS-PAGE, i.e. electrophoresis of proteins in polyacrylamide gel containing SDS). Cell lysate proteins were separated by SDS-PAGE and transferred onto a nitrocelulose (NC) membrane. NC membrane was blocked by 5% skimmed milk, 0.1% Tween 20 in PBS. Protein level of p21^WAF-1 and actin (as a loaded protein volume control) were detected immunochemically using commercially available specific monoclonal antibodies anti-p21^WAF-1 (Ab-1, Calbiochem) and anti-Actin (Clone AC-40, Sigma-Aldrich). The primary antibodies bind to target proteins were detected using rabbit secondary peroxidase-labeled antibody (RAM-Px, DAKO), followed by chemiluminiscence (ECL, Amersham-Pharmacia).
MCF-7 cells were incubated in the presence of 1 μmol of compound 28. In various time intervals from the moment of administration of 28 the cells were harvested and lyzed. […]

SMILES	Activity (%) [10^−5 mol · l^−1 KR = 100%] [1]	Concentration with highest activity [1]	GI50 [2]	GI50 [3]	GI50 [4]	GI50 [5]	GI50 [6]	GI50 [7]	GI50 (MCF-7 (breast carcinoma))	EC50 (Human lymphocytes)	time of effective induction of p21^WAF-1 after addition (p21^WAF-1; 1 μmol concentration)	p21^WAF-1 protein induction in relation to concentration (p21^WAF-1; 12 hours, 0-100 μM tested, effective in range of units imol per liter)
COc1ccccc1CNc1ncnc2c1ncn2[C@@H]1O[C@H](COP(=O)(O)O)[C@@H](O)[C@H]1O [Compound 15, 6-(2-methoxybenzylamino)purine riboside-5-monophosphate]	108 ± 1%	10^−5 mol · l^−1	3.2 µM	> 167 µM	11.2 µM	21.2 µM	2.3 µM	> 167 µM	> 167 µM			
COc1cccc(CNc2ncnc3c2ncn3[C@@H]2O[C@H](COP(=O)(O)O)[C@@H](O)[C@H]2O)c1O [Compound 28, 6-(2-hydroxy-3-methoxybenzylamino)purine riboside-5′-monophosphate]			0.3 µM	69.7 µM	2.1 µM	24.1 µM	0.5 µM	27.9 µM	30.4 µM	1.2 µM	6 to 24 h	efficient p21^WAF-1 protein induction is achieved
COc1cccc(CNc2ncnc3c2ncn3[C@@H]2O[C@H](COP(=O)(O)O)[C@@H](O)[C@H]2O)c1 [Compound 16, 6-(3-methoxybenzylamino)purine riboside-5′-monophosphate]	102 ± 1%	10^−6 mol · l^−1	7.6 µM	> 167 µM	> 167 µM	> 167 µM	4.9 µM	> 167 µM	> 167 µM			
O=P(O)(O)OC[C@H]1O[C@@H](n2cnc3c(NCc4cc(F)ccc4O)ncnc32)[C@H](O)[C@@H]1O [Compound 48, 6-(2-hydroxy-5-fluorobenzylamino)purine riboside-5′-monophosphate]			0.5 µM	58.7 µM	13.4 µM	9.1 µM	0.53 µM	10.7 µM	16 µM			
O=P(O)(O)OC[C@H]1O[C@@H](n2cnc3c(NCc4ccc(O)cc4)ncnc32)[C@H](O)[C@@H]1O [Compound 23, 6-(4-hydroxybenzylamino)purine riboside-5′-monophosphate]			39.7 µM	> 167 µM	> 167 µM	> 167 µM	9.5 µM	> 167 µM	> 167 µM			
O=P(O)(O)OC[C@H]1O[C@@H](n2cnc3c(NCc4cc(Cl)ccc4O)ncnc32)[C@H](O)[C@@H]1O [Compound 47, 6-(2-hydroxy-5-chlorobenzylamino)purine riboside-5′-monophosphate]			0.6 µM	63.4 µM	15.7 µM	10.6 µM	0.47 µM	12.5 µM	18 µM			
O=P(O)(O)OC[C@H]1O[C@@H](n2cnc3c(NCc4cccc(F)c4)ncnc32)[C@H](O)[C@@H]1O [Compound 2, 6-(3-fluorobenzylamino)purine riboside-5′-monophosphate]	103 ± 6%	10^−5 mol · l^−1	4 µM	> 167 µM	7 µM	> 167 µM	0.92 µM	15.7 µM	16.6 µM	11.5 µM		
O=P(O)(O)OC[C@H]1O[C@@H](n2cnc3c(NCc4cccc(O)c4)ncnc32)[C@H](O)[C@@H]1O [Compound 22, 6-(3-hydroxybenzylamino)purine riboside-5′-monophosphate]			51.9 µM	> 167 µM	> 167 µM	> 167 µM	23.7 µM	> 167 µM	> 167 µM	12.8 µM		
